Source: patent US20250268748A1, “TREATMENT OF SPINAL MUSCULAR ATROPHY BY INDUCING HEAT SHOCK RESPONSE” (THE RESEARCH INSTITUTE AT NATIONWIDE CHILDREN'S HOSPITAL, priority 2016, published 2025)

Legend:
[1] = tested on: SMN2 full length splicing in MCF-7 cells; test: 17-DMAG HSP90 inhibition, RT-PCR of SMN exon 7 splicing with or without heat shock; assay type: cell-based; conditions: for SMN2 full length splicing: 8 hours
Experimental: FIG. 7 provide an image and a graph showing that HSP90 inhibition prevents heat-induced SMN splicing correction. HSP90 inhibition was performed with 17-DMAG in MCF-7 cells. Dose responses were analyzed at 0, 10, 20, 40 nM 17-DMAG for 8 hours, with or without 41° C. heat treatment. Total RN A was harvested and RT-PCR amplification of SMN transcripts was used to observe splicing levels of exon 7. Significance levels are: * p-value<0.05, **p-value <0.01.
To validate the role of HSP90 in the SMN2 splicing under heat shock, the HSP90 ATPase inhibitor, 17-DMAG was administered to MCF-7 cells. 17-DMAG was administered at 0, 10 nM, 20 nM, and 40 nM concentrations the same time as the heat shock treatment, for the duration of 8 hours. Experiments were performed in parallel at 37° C. and 41° C. […] (FIG. 7). […] Full length SMN2 is quantitated for all samples and three trials are graphed, showing significant alterations in SMN splicing.
17-DMAG (17-Dimethylaminoethylamino-17-demethoxygeldanamycin) was purchased from Cayman Chemicals and resuspended in DMSO to a 20 mM stock. Then treatments were administered to cultured cells at a density of 75% in 6 well plates.
Cells grown under normal conditions (37° C.) were grown in a 5% C02, humidified incubator. Cells grown under heat shock conditions (38°-41° C.) were cultured at 5% C02, humidified incubators set to respective temperatures and monitored for temperature fluctuations with calibrated digital thermometer. Cells were maintained at their temperature treatment for the duration of the time point and harvested for RNA or protein directly following treatment.
Total RNA was isolated from samples using RNeasy kits (Qiagen). cDNA was created from RNA with Roche Transcriptor Reverse Transcriptase. cDNA was created from 1.5 ug of total RNA using random hexamers (Roche). PCR was performed with Sigma Taq Polymerase to detect exon 7 splicing of SMN1 and SMN2 transcripts. Primers were designed to flank exon 7 to visualize both full length and exon-skipped products: forward primer in exon 6 and reverse primer in exon 8. PCR cycles were performed with the following conditions: annealing temperature 62° C., 30 sec; 72° C. extension, 1 min; for 35 cycles. Importantly, there exists a unique digestion site (Ddel) within this PCR amplicon in exon 8 of SMN2. Therefore, to distinguish between SMN1 and SMN2transcripts, PCR products were digested with the enzyme Ddel. Subsequent digested PCR products were then resolved on 2.5% agarose gels (product sizes: SMN1 full-length: 507 bp, SMN1A7: 453 bp, SMN2 full-length: 392 bp, SMN2M: 338 bp). Splicing ratios were determined by densitometry (ImageQuant software, GE Healthcare Life Sciences) and statistical analysis (two tailed t test) performed using Graphpad Prism software.

[2] = tested on: SMN2 exon 7 inclusion in differentiated SH-SY5Y cells; test: Oxidative stress treatment, RT-PCR of SMN2 splicing; assay type: cell-based; conditions: 20 μM for 24 hours (oxidative stress)
Experimental: FIGS. 2A-2C provide graphs and images showing that heat shock increases the functional splicing product of SMN2 in a dose and time-dependent manner. A. Neuroblastoma cell line, SHSY-5Y, were differentiated for 7-9 days in 5 μM retinoic acid and then treated with various stresses to characterize the level of SMN2 as a stress-responsive gene. RNA splicing levels of SMN1 and 2 were observed by performing RTPCR analysis on total mRNA harvested from cell lysates. […] B. To test the cell-type specificity of the heat shock effect on SMN splicing, we performed a heat shock treatment on several cell lines. All treatments were performed with 24 hours of 41° C. and compared with NT (37° C.) quantitation is shown (n-3). This treatment was performed in Differentiated SHSY-5Y cells, SMA patient fibroblasts (GM03813), SMA carrier fibroblasts (GM03814), and a breast cancer cell line (MCF-7) cells. Heat treatment induces a significant change in splicing in all cell lines tested. C. To test the duration of heat treatment necessary for heat shock induced splicing correction a time course was performed. Differentiated SHSY-5Y cells were treated with 41° C. for 1, 4, 8, and 24 hour time intervals. D. To test the quantity of heat required to elicit splicing correction, a heat treatment dose response was performed. Differentiated SHSY-5Y cells were treated with temperatures from 37° to 41° C. for 8 hours. […]

Q: How did the “SMN2 full length splicing” value ([1]; 10 nM, 37° C.) turn out when `CO[C@H]1/C=C\C=C(/C)C(=O)NC2=CC(=O)C(NCCN(C)C)=C(C[C@@H](C)C[C@H](OC)[C@H](O)[C@@H](C)/C=C(\C)[C@@H]1OC(N)=O)C2=O` [17-DMAG, 17-Dimethylaminoethylamino-17-demethoxygeldanamycin] was run?
A: The value was “significant decrease”.

Q: What about the “SMN2 full length splicing” value ([1]; 10 nM, 41° C.) of the same molecule?
A: Its value is “significantly decreased the full length splicing to even below baseline splicing at 37 °C”.

Q: And the “SMN2 full length splicing” value ([1]; 20 nM, 37° C.)?
A: Its value is “began to approach basal splicing levels”.

Q: What about the “SMN2 full length splicing” value ([1]; 20 nM, 41° C.) of the same molecule?
A: Its value is “significantly decreased the full length splicing to even below baseline splicing at 37 °C”.

Q: And the “SMN2 full length splicing” value ([1]; 40 nM, 37° C.)?
A: Its value is “began to approach basal splicing levels”.

Q: What about the “SMN2 full length splicing” value ([1]; 40 nM, 41° C.) of the same molecule?
A: Its value is “significantly decreased the full length splicing to even below baseline splicing at 37 °C”.

Q: And the “heat shock-induced full length SMN2 splicing (summary statement)” value ([1]; heat shock)?
A: The value was “prevents”.

Q: For `OO` [HO2], which “SMN2 exon 7 inclusion” value [2] is on record?
A: Its value is “mild decreases in exon 7 inclusion”.
